What was measured:
[1] = molecular target: T1, GPR 119 Receptor (Mus musculus, UniProt Q7TQP3); experiment: Glucose tolerance test / whole blood glucose level change in disease model animal (DIO mouse); assay type: in vivo; conditions: daily
T1 construct: from tissue; host or cells: whole animal: male C57/6J Jms mice (normal) or diet induced obesity C57BL/6J mice
T1 sequence (Q7TQP3 1-335): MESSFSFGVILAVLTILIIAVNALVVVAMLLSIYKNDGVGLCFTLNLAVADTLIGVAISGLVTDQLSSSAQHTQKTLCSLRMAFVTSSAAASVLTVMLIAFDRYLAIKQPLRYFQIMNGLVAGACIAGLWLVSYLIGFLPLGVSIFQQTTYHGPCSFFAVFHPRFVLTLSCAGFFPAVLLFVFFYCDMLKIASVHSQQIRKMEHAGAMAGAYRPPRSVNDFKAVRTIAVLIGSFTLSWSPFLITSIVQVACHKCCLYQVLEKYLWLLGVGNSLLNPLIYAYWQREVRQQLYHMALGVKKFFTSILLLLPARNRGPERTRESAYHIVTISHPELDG
Protocol: Male C57BL/6J mice of 6.5 weeks of age were taken with high fat diet (60% kcal, Research Diets) for 12 weeks. The obtained male diet induced obesity (DIO) C57BL/6J mice of 18.5 weeks of age were fasted for 16 hours before the start of glucose tolerance test. The experimental animal groups consist of: • A. a vehicle group (10% EtOH, 20% HPBCD in D.W.), • B. a positive control group administered with Sitagliptin (30 mg/kg), and • C. test groups administered with compound 770 and Compound 1028 (10, 30 mgkg and combination administration with sitagliptin 30 mg/kg).
Each test compounds was administered at the same time of every day for 2 weeks. Before the compound administration, whole blood glucose level was determined using a Glucometer (ACCU-CHEK, Roche). At 30 minutes after compound administration, whole blood glucose level was determined once again, and 20% glucose (2 g/kg/10 mL) was administered orally. Whole blood glucose level was determined at 20, 40, 60, 80, and 120 minutes after 20% glucose administration. Area under the curve (AUC) of whole blood glucose level was obtained using GraphPad Prism 5.0. The effect of glucose tolerance was adjudged with the corrected area under the curve (cAUC), on which the base value of glucose area under the curve was excluded.
Whole blood glucose level was measured at about 1 hour after test compound administration from caudal vein of mice using Glucometer. Whole blood glucose level was determined three times totally, that is, (1) at prior to the start of drug administration, (2) after 1 week from the start of 2-weeks drug administration, and (3) after the termination of 2-weeks drug administration. Each determination was started with 20% glucose administration, and then perfomed at 20, 40, 60, 80, and 120 minutes after 20% glucose administration.

[2] = molecular target: T2, human GPR119 receptor (Homo sapiens, UniProt Q8TDV5); experiment: Activity test for human GPR119 receptor (GeneBLAzer T-Rex GPR 119 CHO-K1 DA cells, fluorescence reporter); assay type: cell-based; conditions: human GPR119 CHO-K1 reporter cells, 5 hours treatment, ratio to vehicle control well, read-out: % Activation
T2 construct: host or cells: GeneBLAzer T-Rex GPR 119 CHO-K1 DA cells (CHO-K1)
T2 sequence (Q8TDV5 1-335): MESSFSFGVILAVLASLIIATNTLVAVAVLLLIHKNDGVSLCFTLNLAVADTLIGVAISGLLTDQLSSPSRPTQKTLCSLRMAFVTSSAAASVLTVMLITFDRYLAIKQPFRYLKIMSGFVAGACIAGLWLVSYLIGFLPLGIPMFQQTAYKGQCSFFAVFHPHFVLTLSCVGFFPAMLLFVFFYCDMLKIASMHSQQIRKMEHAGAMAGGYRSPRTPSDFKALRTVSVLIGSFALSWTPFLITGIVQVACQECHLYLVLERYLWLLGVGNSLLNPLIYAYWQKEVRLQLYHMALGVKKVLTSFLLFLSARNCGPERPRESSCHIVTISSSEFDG
Protocol: As a human GPR119 receptor expression cell for this test, the cell line “GeneBLAzer™ T-Rex GPR 119 CHO-K1 DA cells” that is commercially available from Invitrogen, was used. The cell was incubated in the DMEM media containing 1% dialyzed fetal bovine serum etc. The cell incubator was kept at constant temperature and constant humidity of 37° C., 5% CO2.
The human GPR119 receptor expressing cell was used to this test. Each of test compounds was added to be final concentrations of 0.1, 1, 10 μM in 96 well and tested in duplicate. A fixed amount of cell was added to each well of 96 well separately, and then treated with the test compound for 5 hours. After treatment of color development agent for 2 hours, the fluorescence value was determined with plate reader. To the luminous wavelength of control well, which was not treated with the agonist sample, but in which only a vehicle (i.e., cell) was contained, the ratio of the luminous wavelength of test well, which was treated with the agonist sample, was calculated, and then converted to obtain % value.
All the results were expressed as mean±SD, and each test groups and the control group were compared using student's t-test to adjudge the effects of each test groups.

[3] = molecular target: T1, GPR 119 Receptor; experiment: Glucose tolerance test in normal mouse (animal test of activity for the GPR 119 receptor); assay type: in vivo; conditions: normal male C57/6J Jms mice, oral glucose 2 g/kg, whole blood glucose AUC
Protocol: Male C57/6J Jms mice of 6-7 weeks of age were fasted for 16 hours before the start of glucose tolerance test. The experimental animal groups consist of: • A. a vehicle group (10% EtOH, 20% HPBCD in saline), • B. a positive control group administered with MBX-2982 (10 mg/kg), and • C. test groups administered with compound 516, 581, 586, 612, 640, 644 or etc. (10 mg/kg).
Before compound administration, that is, at 0 hour, whole blood glucose level was determined using a Glucometer (ACCU-CHEK, Roche). At 30 minutes after compound administration, whole blood glucose level was determined once again, and 20% glucose (2 g/kg/10 mL) was administered orally. Whole blood glucose level was determined at 20, 40, 60, 80, and 120 minutes after 20% glucose administration. Area under the curve (AUC) of whole blood glucose level was obtained using GraphPad Prism 5.0. The effect of glucose tolerance was adjudged with the corrected area under the curve (cAUC), on which the base value of glucose area under the curve was excluded.

[4] = 30 mpk alone, 0 week (prior to start of administration)

SMILES | Whole Blood Glucose Level Change (%) by drug administration [1, 4] [%] | Whole Blood Glucose Level Change (%) by drug administration ([1]; 30 mpk alone, 1 week) [%] | Whole Blood Glucose Level Change (%) by drug administration ([1]; 30 mpk alone, 2 weeks) [%] | Whole Blood Glucose Level Change (%) by drug administration ([1]; 10 mpk alone, 0 week (prior to start of administration)) [%] | Whole Blood Glucose Level Change (%) by drug administration ([1]; 10 mpk alone, 1 week) [%] | Whole Blood Glucose Level Change (%) by drug administration ([1]; 10 mpk alone, 2 weeks) [%] | activity at 0.1 µM ([2]; test compound conc. 0.1 μM) [%] | activity at 1 µM ([2]; test compound conc. 1 μM) [%] | activity at 10 µM ([2]; test compound conc. 10 μM) [%] | Decrease % of AUC at 10 mg/kg [3] [%]
N[C@@H](CC(=O)N1CCn2c(nnc2C(F)(F)F)C1)Cc1cc(F)c(F)cc1F [Sitagliptin, reference compound] | 0 | 25.5 | 31.7 | – | – | – | – | – | – | –
CC(C)(F)CN1CCC(COc2ccc(-c3ccc(C(=O)N4CCC[C@H]4C(N)=O)c(F)c3)nc2)CC1 [Compound 770, (S)-1-(2-fluoro-4-(5-((1-(2-fluoro-2-methylpropyl)piperidin-4-yl)methoxy)pyridine-2-yl)benzoyl)pyrrolidine-2-carboxamide] | 0 | 25.5 | 26.6 | 0 | 22.9 | 24.0 | 228 | 280 | 310 | 47
